Reference: PubChem BioAssay AID200 (DTP/NCI, 2004)
Values joined by “and” are separate entries in the source; they are usually repeats but may differ in a detail not shown here. Equal values may be shown once. Toxic doses and inconclusive results are not listed.

Tested on: B6C3F1 mice, B16 melanoma ip, median survival T/C
Test: NCI In Vivo Anticancer Drug Screen. Data for tumor model B16 Melanoma (intraperitoneal) in B6C3F1 mice
Details: endpoint: median survival time, higher = longer survival
Procedure, shortened: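 Tumor-bearing mice received test compound; a separate group got vehicle only. Survival was then compared, with results reported as treated over control.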

[1] = dose: 75.0 mg/kg/injection, schedule: Q01DX009 (ip), vehicle: saline
[2] = dose: 100.0 mg/kg/injection, schedule: Q01DX009 (ip), vehicle: saline
[3] = dose: 150.0 mg/kg/injection, schedule: Q01DX009 (ip), vehicle: saline
[4] = dose: 12.5 mg/kg/injection, schedule: Q01DX009 (ip), vehicle: saline with Tween-80
[5] = dose: 25.0 mg/kg/injection, schedule: Q01DX009 (ip), vehicle: saline with Tween-80
[6] = dose: 50.0 mg/kg/injection, schedule: Q01DX009 (ip), vehicle: saline with Tween-80
[7] = dose: 100.0 mg/kg/injection, schedule: Q01DX009 (ip), vehicle: saline with Tween-80
[8] = dose: 6.25 mg/kg/injection, schedule: Q01DX009 (ip), vehicle: Klucel (hydroxypropylcellulose) (HPC)
[9] = dose: 12.5 mg/kg/injection, schedule: Q01DX009 (ip), vehicle: Klucel (hydroxypropylcellulose) (HPC)
[10] = dose: 6.25 mg/kg/injection, schedule: Q01DX009 (ip), vehicle: saline with Tween-80
[11] = dose: 200.0 mg/kg/injection, schedule: Q01DX009 (ip), vehicle: saline with Tween-80
[12] = dose: 25.0 mg/kg/injection, schedule: Q01DX009 (ip), vehicle: saline
[13] = dose: 50.0 mg/kg/injection, schedule: Q01DX009 (ip), vehicle: saline
[14] = dose: 200.0 mg/kg/injection, schedule: Q01DX009 (ip), vehicle: saline
[15] = dose: 25.0 mg/kg/injection, schedule: Q01DX009 (ip), vehicle: Klucel (hydroxypropylcellulose) (HPC)
[16] = dose: 100.0 mg/kg/injection, schedule: Q01DX009 (ip), vehicle: Klucel (hydroxypropylcellulose) (HPC)
[17] = dose: 200.0 mg/kg/injection, schedule: Q01DX009 (ip), vehicle: Klucel (hydroxypropylcellulose) (HPC)
[18] = dose: 400.0 mg/kg/injection, schedule: Q01DX009 (ip), vehicle: Klucel (hydroxypropylcellulose) (HPC)

Structure (SMILES): NC(CNc1ccc(O)cc1)C(=O)O (centres undefined)
- T/C [1]: 111 % of control
- T/C [2]: 103 % of control
- T/C [3]: 101 % of control

Structure (SMILES): COC1/C=C/O[C@@]2(C)Oc3c(C)c(O)c4c(O)c(cc(O)c4c3C2=O)NC(=O)/C(C)=C\C=C\[C@H](C)C(O)[C@@H](C)[C@@H](O)[C@@H](C)[C@H](OC(C)=O)[C@@H]1C (some centres undefined)
- T/C [4]: 95 % of control
- T/C [5]: 97 % of control
- T/C [6]: 93 % of control
- T/C [7]: 95 % of control

Structure (SMILES): CN=C(N)N/N=C(\c1ccccc1)c1ccc(Br)cc1
- T/C (dose: 1.5 mg/kg/injection, schedule: Q01DX009 (ip), vehicle: saline with Tween-80): 103 % of control
- T/C (dose: 3.0 mg/kg/injection, schedule: Q01DX009 (ip), vehicle: saline with Tween-80): 107 % of control
- T/C (dose: 6.0 mg/kg/injection, schedule: Q01DX009 (ip), vehicle: saline with Tween-80): 97 % of control
- T/C (dose: 12.0 mg/kg/injection, schedule: Q01DX009 (ip), vehicle: saline with Tween-80): 96 % of control

Structure (SMILES): Cn1c2ccccc2c2ccc3c(c21)C(=O)C=CC3=O
- T/C [8]: 96 % of control
- T/C [9]: 107 % of control

Structure (SMILES): CC(=Nc1ccccc1)C1=C(O)C(Cc2ccccc2)NC1=O (centres undefined)
- T/C (dose: 3.13 mg/kg/injection, schedule: Q01DX009 (ip), vehicle: saline with Tween-80): 113 % of control
- T/C [10]: 121 % of control
- T/C [4]: 115 % of control and 103 % of control
- T/C [5]: 119 % of control and 103 % of control
- T/C [6]: 113 % of control

Structure (SMILES): C/C=C1/C(=O)O[C@]23C=C[C@@H]4C(C(=O)OC)=CO[C@H](O[C@@H]12)[C@@H]43
- T/C (dose: 3.75 mg/kg/injection, schedule: Q01DX009 (ip), vehicle: Klucel (hydroxypropylcellulose) (HPC)): 102 % of control
- T/C (dose: 7.5 mg/kg/injection, schedule: Q01DX009 (ip), vehicle: Klucel (hydroxypropylcellulose) (HPC)): 91 % of control
- T/C (dose: 15.0 mg/kg/injection, schedule: Q01DX009 (ip), vehicle: Klucel (hydroxypropylcellulose) (HPC)): 98 % of control

Structure (SMILES): N#CCCCCCCCCCCC(=O)O
- T/C [7]: 93 % of control
- T/C [11]: 96 % of control
- T/C (dose: 400.0 mg/kg/injection, schedule: Q01DX009 (ip), vehicle: saline with Tween-80): 99 % of control

Structure (SMILES): CN(C)CCOc1ccc2c(c1)C/C(=C/c1ncc([N+](=O)[O-])n1C)C2=O
- T/C [10]: 100 % of control
- T/C [4]: 104 % of control
- T/C [5]: 100 % of control
- T/C [6]: 111 % of control

Structure (SMILES): Cc1ccc(C(=Nc2ccccc2)N=P(c2ccccc2)(c2ccccc2)c2ccccc2)cc1
- T/C [4]: 94 % of control
- T/C [5]: 114 % of control
- T/C [6]: 99 % of control

Structure (SMILES): O=C(O)CNc1ccc(O)cc1
- T/C [12]: 104 % of control
- T/C [13]: 105 % of control
- T/C [1]: 105 % of control
- T/C [2]: 112 % of control and 121 % of control
- T/C [3]: 105 % of control
- T/C [14]: 100 % of control and 101 % of control

Structure (SMILES): O=C1CN(CN2CCOCC2)C(=O)CN1CN1CCOCC1
- T/C [4]: 88 % of control
- T/C [5]: 94 % of control
- T/C [6]: 93 % of control
- T/C [7]: 102 % of control
- T/C [11]: 100 % of control

Structure (SMILES): CC(C)NCC(O)COc1ccc(O)c(O)c1 (centres undefined)
- T/C [12]: 100 % of control and 103 % of control
- T/C [13]: 113 % of control and 106 % of control
- T/C [2]: 109 % of control and 116 % of control

Structure (SMILES): CN=C(NC#N)NCCSCc1nc[nH]c1C
- T/C [9]: 114 % of control
- T/C [15]: 96 % of control
- T/C (dose: 50.0 mg/kg/injection, schedule: Q01DX009 (ip), vehicle: Klucel (hydroxypropylcellulose) (HPC)): 104 % of control
- T/C [16]: 101 % of control
- T/C [17]: 102 % of control
- T/C [18]: 98 % of control

Structure (SMILES): Cc1cccc2c1CC(C(C)C)C2 (centres undefined)
- T/C [6]: 105 % of control
- T/C [7]: 93 % of control

Structure (SMILES): c1cc2c(c(CC3CO3)c1CC1CO1)OCCOCCOCCOCCO2 (centres undefined)
- T/C (dose: 6.25 mg/kg/injection, schedule: Q01DX009 (ip), vehicle: saline + alcohol): 102 % of control
- T/C (dose: 12.5 mg/kg/injection, schedule: Q01DX009 (ip), vehicle: saline + alcohol): 112 % of control
- T/C (dose: 25.0 mg/kg/injection, schedule: Q01DX009 (ip), vehicle: saline + Tween-80 + alcohol): 113 % of control
- T/C (dose: 25.0 mg/kg/injection, schedule: Q01DX009 (ip), vehicle: saline + alcohol): 112 % of control
- T/C (dose: 50.0 mg/kg/injection, schedule: Q01DX009 (ip), vehicle: saline + Tween-80 + alcohol): 113 % of control
- T/C (dose: 50.0 mg/kg/injection, schedule: Q01DX009 (ip), vehicle: saline + alcohol): 119 % of control and 108 % of control
- T/C (dose: 100.0 mg/kg/injection, schedule: Q01DX009 (ip), vehicle: saline + Tween-80 + alcohol): 122 % of control
- T/C (dose: 100.0 mg/kg/injection, schedule: Q01DX009 (ip), vehicle: saline + alcohol): 113 % of control and 123 % of control
- T/C (dose: 200.0 mg/kg/injection, schedule: Q01DX009 (ip), vehicle: saline + alcohol): 109 % of control

Structure (SMILES): COc1ccc(CC2C(=O)NC(C)C(=O)N(C)C3C(=O)N(C)C(Cc4ccc(O)c(c4)Oc4ccc(cc4)C3O)C(=O)NC(C)C(=O)NC(C)C(=O)N2C)cc1 (centres undefined)
- T/C (dose: 0.25 mg/kg/injection, schedule: Q01DX005 (ip), vehicle: saline with Tween-80): 123 % of control
- T/C (dose: 0.25 mg/kg/injection, schedule: Q01DX005 (iv), vehicle: saline with Tween-80): 89 % of control and 107 % of control
- T/C (dose: 0.5 mg/kg/injection, schedule: Q01DX005 (iv), vehicle: saline with Tween-80): 98 % of control and 100 % of control
- T/C (dose: 0.5 mg/kg/injection, schedule: Q01DX009 (ip), vehicle: saline with Tween-80): 174 % of control
- T/C (dose: 1.0 mg/kg/injection, schedule: Q01DX005 (iv), vehicle: saline with Tween-80): 98 % of control and 99 % of control
- T/C (dose: 2.0 mg/kg/injection, schedule: Q01DX005 (iv), vehicle: saline with Tween-80): 98 % of control and 104 % of control
- T/C (dose: 2.0 mg/kg/injection, schedule: Q01DX009 (ip), vehicle: saline with Tween-80): 152 % of control

Structure (SMILES): COc1cccc2c1C(=O)c1c(O)c3c(c(O)c1C2=O)CC(O)(C(C)=O)CC3OC1CC(NC(=O)C(CCCCN)NC(=O)C2CCCN2)C(O)C(C)O1 (centres undefined)
- T/C (dose: 1.25 mg/kg/injection, schedule: Q01DX001 (ip), vehicle: water): 112 % of control
- T/C (dose: 2.5 mg/kg/injection, schedule: Q01DX001 (ip), vehicle: water): 110 % of control
- T/C (dose: 20.0 mg/kg/injection, schedule: Q01DX001 (ip), vehicle: water): 176 % of control
- T/C (dose: 40.0 mg/kg/injection, schedule: Q01DX001 (ip), vehicle: water): 267 % of control

Structure (SMILES): NC(CSCc1ccccc1)C(=O)Nc1ccc([N+](=O)[O-])cc1 (centres undefined)
- T/C [16]: 115 % of control
- T/C [17]: 111 % of control
- T/C [18]: 116 % of control

Structure (SMILES): CC1=CC(=Nc2ccc(N(CCCl)CCCl)cc2)C=C(C)C1=O
- T/C [8]: 150 % of control
- T/C [9]: 163 % of control and 176 % of control
- T/C [15]: 186 % of control

Structure (SMILES): c1ccc2c(c1)-c1ccccc1C1NC21 (centres undefined)
- T/C [10]: 103 % of control
- T/C [4]: 112 % of control

Structure (SMILES): O=C(Nc1ccccc1CCl)Nc1ccccc1CCl
- T/C [5]: 111 % of control
- T/C [6]: 115 % of control
- T/C [7]: 115 % of control
- T/C [11]: 118 % of control

Structure (SMILES): CCCC(=O)O.CCCC(=O)O.CCCC(=O)O.CCCC(=O)O.[Rh].[Rh]
- T/C (dose: 0.03 mg/kg/injection, schedule: Q01DX009 (ip), vehicle: saline + alcohol): 100 % of control and 101 % of control
- T/C (dose: 0.06 mg/kg/injection, schedule: Q01DX009 (ip), vehicle: saline + alcohol): 103 % of control and 104 % of control
- T/C (dose: 0.12 mg/kg/injection, schedule: Q01DX009 (ip), vehicle: saline + alcohol): 100 % of control and 107 % of control
- T/C (dose: 0.25 mg/kg/injection, schedule: Q01DX009 (ip), vehicle: saline + alcohol): 98 % of control and 101 % of control
- T/C (dose: 0.5 mg/kg/injection, schedule: Q01DX009 (ip), vehicle: saline + alcohol): 101 % of control and 104 % of control
- T/C (dose: 1.0 mg/kg/injection, schedule: Q01DX009 (ip), vehicle: saline + alcohol): 108 % of control

Structure (SMILES): CCN1C[C@]2(COC)[C@H](O)C[C@H](OC)[C@]34C1[C@H]([C@H](OC)[C@H]23)[C@]1(OC(C)=O)[C@H]2[C@@H](OC(=O)c3ccccc3)[C@](O)(C[C@H]24)[C@@H](OC)[C@@H]1O
- T/C (dose: 7.5 micrograms/kg/injection, schedule: Q01DX009 (ip), vehicle: saline): 118 % of control
- T/C (dose: 15.0 micrograms/kg/injection, schedule: Q01DX009 (ip), vehicle: saline): 115 % of control
- T/C (dose: 30.0 micrograms/kg/injection, schedule: Q01DX009 (ip), vehicle: saline): 99 % of control
- T/C (dose: 60.0 micrograms/kg/injection, schedule: Q01DX009 (ip), vehicle: saline): 122 % of control

Structure (SMILES): O=C1CCC2=C3C4CCCC5OC6CC(=O)CCC6=C(C6CCCC(OC2C1)C36)C54 (centres undefined)
- T/C [13]: 102 % of control
- T/C [2]: 102 % of control
- T/C [14]: 97 % of control
- T/C (dose: 400.0 mg/kg/injection, schedule: Q01DX009 (ip), vehicle: saline): 96 % of control
